pIC50: −log10 of the molar value.
Legend:
[1] = target: T1, Steroid 17-alpha-hydroxylase/17,20 lyase (Homo sapiens, UniProt P05093); assay: Inhibition of recombinant CYP17 (unknown origin) expressed in human AD293 cells using [21-3H]17alpha-hydroxypregnenolone as substrate preincubated for 60 mins followed by substrate addition measured after 4 hrs Topcount method; assay type: cell-based
T1 sequence (P05093 whole entry): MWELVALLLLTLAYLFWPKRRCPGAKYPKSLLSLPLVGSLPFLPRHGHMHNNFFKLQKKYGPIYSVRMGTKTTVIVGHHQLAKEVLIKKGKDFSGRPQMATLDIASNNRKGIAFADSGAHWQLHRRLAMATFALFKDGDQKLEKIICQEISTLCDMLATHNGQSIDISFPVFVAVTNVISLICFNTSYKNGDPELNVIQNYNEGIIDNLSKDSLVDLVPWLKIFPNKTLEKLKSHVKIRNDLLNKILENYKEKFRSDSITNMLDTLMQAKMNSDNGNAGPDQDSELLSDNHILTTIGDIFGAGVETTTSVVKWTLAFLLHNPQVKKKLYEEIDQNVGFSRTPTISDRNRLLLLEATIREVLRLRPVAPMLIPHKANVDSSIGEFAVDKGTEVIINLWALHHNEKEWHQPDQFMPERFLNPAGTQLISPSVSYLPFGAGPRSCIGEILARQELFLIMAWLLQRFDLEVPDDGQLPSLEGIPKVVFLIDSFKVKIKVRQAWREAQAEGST

[2] = Clearance in guinea pig at 1 mg/kg, iv by LC-MS/MS analysis; assay type: ADME, organism-based, Cavia porcellus; conditions: in vivo
Cavia porcellus [3] = assay: Cmax in guinea pig at 10 mg/kg, po by LC-MS/MS analysis; assay type: ADME, organism-based; parameters: dose 10 mg/kg, route oral; conditions: in vivo
[4] = AUC (0 to infinity) in guinea pig at 1 mg/kg, iv by LC-MS/MS analysis; assay type: ADME, organism-based, Cavia porcellus; parameters: dose 1 mg/kg, route intravenous, time infinity; conditions: in vivo
Cavia porcellus [5] = assay: Half-life in guinea pig at 10 mg/kg, po by LC-MS/MS analysis; assay type: ADME, organism-based; conditions: in vivo
[6] = Tmax in guinea pig at 1 mg/kg, iv by LC-MS/MS analysis; assay type: ADME, organism-based, Cavia porcellus; conditions: in vivo
Cavia porcellus [7] = assay: AUC (0 to infinity) in guinea pig at 10 mg/kg, po by LC-MS/MS analysis; assay type: ADME, organism-based; parameters: dose 10 mg/kg, time infinity, route oral; conditions: in vivo
[8] = Volume of distribution in guinea pig at 1 mg/kg, iv by LC-MS/MS analysis; assay type: ADME, organism-based, Cavia porcellus; conditions: in vivo
[9] = Half-life in guinea pig at 1 mg/kg, iv by LC-MS/MS analysis; assay type: ADME, organism-based, Cavia porcellus; conditions: in vivo
[10] = Cmax in guinea pig at 1 mg/kg, iv by LC-MS/MS analysis; assay type: ADME, organism-based, Cavia porcellus; parameters: dose 1 mg/kg, route intravenous; conditions: in vivo
Homo sapiens [11] = organism: Homo sapiens; assay: Selectivity index, ratio of IC50 for human CYP3A4 to IC50 for recombinant CYP17 (unknown origin)
[12] = Half-life in guinea pig liver microsomes in presence of NADPH regenerating system by LC/MS/MS method; assay type: ADME, Cavia porcellus, microsome
Homo sapiens [13] = organism: Homo sapiens; assay: Selectivity index, ratio of IC50 for CYP19 (unknown origin) to IC50 for recombinant CYP17 (unknown origin)
Cavia porcellus [14] = assay: Oral bioavailability in guinea pig at 10 mg/kg by LC-MS/MS analysis; assay type: ADME, organism-based; conditions: in vivo

Compound O=S(=O)(C(F)F)N1CCN(c2ccc(/C=C/c3cc(F)cc(Cn4ccnc4)c3)cc2)CC1 has a pIC50 [1] of 8.30.
For O=S(=O)(C1CC1)N1CCN(c2ccc(/C=C/c3cc(F)cc(Cn4ccnc4)c3)cc2)CC1, the pIC50 [1] was 7.47.
Work on O=S(=O)(C1CC1)N1CCN(c2ccc(/C=C/c3cc(F)cc(-c4ccncc4)c3)cc2)CC1 yielded a pIC50 [1] of 9.00.
In the case of CCS(=O)(=O)N1CCN(c2ccc(/C=C/c3cc(F)cc(-c4ccncc4)c3)cc2)CC1, the clearance [2] was 8.79 mL/min/kg, the Cmax (Cavia porcellus [3]) was 540 ng/mL and the AUC(0-inf) [4] was 2000 ng·h/mL. The t1/2 (Cavia porcellus [5]) was 4.8 h, the Tmax [6] was 0.15 h and the AUC (Cavia porcellus [7]) was 4190 ng·h/mL. For the same compound, the Vd [8] was 4.05 L/kg, the half-life [9] was 5.7 h and the Cmax [10] was 852 ng/mL. The Ratio IC50 (Homo sapiens [11]) was 49, the half-life [12] was 1 h and the Ratio IC50 (Homo sapiens [13]) was 2000.
CC(=O)N1CCN(c2ccc(/C=C/c3cc(F)cc(-c4ccncc4)c3)cc2)CC1 showed a clearance [2] of 28.5 mL/min/kg, a Cmax (Cavia porcellus [3]) of 1018 ng/mL and an AUC(0-inf) [4] of 586 ng·h/mL. It also gave a t1/2 (Cavia porcellus [5]) of 6 h, a Tmax [6] of 0.1 h and an AUC (Cavia porcellus [7]) of 14890 ng·h/mL. It also gave a Vd [8] of 14.8 L/kg, a half-life [9] of 6 h and a Cmax [10] of 132 ng/mL. For the same compound, the Ratio IC50 (Homo sapiens [11]) was 151, the half-life [12] was 1 h and the F (Cavia porcellus [14]) was 184.2%. It also gave a Ratio IC50 (Homo sapiens [13]) of 2170.
In the case of N#CCS(=O)(=O)N1CCN(c2ccc(/C=C/c3cc(Cl)cc(-c4ccncc4)c3)cc2)CC1, the pIC50 [1] was 8.22.
O=S(=O)(C(F)F)N1CCN(c2ccc(/C=C/c3cc(Cl)cc(-c4ccncc4)c3)cc2)CC1 gave a pIC50 [1] of 8.30.
N=C(N)N1CCN(c2ccc(/C=C/c3cc(Cl)cc(-c4ccncc4)c3)cc2)CC1 showed a pIC50 [1] of 7.77.
Work on O=S(=O)(N1CCN(c2ccc(/C=C/c3cc(F)cc(-c4ccncc4)c3)cc2)CC1)C(F)(F)F yielded a clearance [2] of 20.9 mL/min/kg, a Cmax (Cavia porcellus [3]) of 271 ng/mL and an AUC(0-inf) [4] of 815 ng·h/mL. The t1/2 (Cavia porcellus [5]) was 5.25 h, the Tmax [6] was 0.2 h and the AUC (Cavia porcellus [7]) was 2452 ng·h/mL. It also gave a Vd [8] of 9.1 L/kg, a half-life [9] of 5 h and a Cmax [10] of 203 ng/mL. For the same compound, the Ratio IC50 (Homo sapiens [11]) was 1560, the pIC50 [1] was 8.70 and the half-life [12] was 1 h. For the same compound, the Ratio IC50 (Homo sapiens [13]) was 167.
Work on CC(=O)N1CCN(c2ccc(OCC3COC(Cn4ccnc4)(c4ccc(Cl)cc4Cl)O3)cc2)CC1 (stereo unspecified) [KETOCONAZOLE] yielded a half-life [12] of 0.667 h.
Compound O=S(=O)(C(F)F)N1CCN(c2ccc(/C=C/c3cc(F)cc(-c4ccncc4)c3)cc2)CC1 has a pIC50 [1] of 8.30.

Source: ChEMBL document CHEMBL4118215, “Design and synthesis of functionalized piperazin-1yl-(E)-stilbenes as inhibitors of 17α-hydroxylase-C17,20-lyase (Cyp17)” (Bioorg Med Chem Lett, 2018)
